The NIST ThermoML archive (doi:10.1021/je020120h)
± gives the expanded uncertainty stated by the source.

Key:
[1] = 298.15 K; 101.33 kPa; Liquid; Vibrating tube method
[2] = excess molar enthalpy (molar enthalpy of mixing); xn = mol fraction of the nth substance listed; conditions: 298.15 K, 101.3 kPa, Liquid, Flow calorimetry

Cc1ccccc1C [1,2-dimethylbenzene]
Conditions | mass density [kg/m3]
[1] | 875 ± 0.5

Cc1ccccc1C [1,2-dimethylbenzene] + COC(=O)OC
[2]
Conditions | excess molar enthalpy [kcal/mol]
x2 = 0.0511 | 0.0266 ± 0.000645
x2 = 0.1006 | 0.0553 ± 0.00124
x2 = 0.1503 | 0.0795 ± 0.00174
x2 = 0.2016 | 0.0932 ± 0.00203
x2 = 0.2513 | 0.106 ± 0.00232
x2 = 0.3024 | 0.125 ± 0.00263
x2 = 0.3519 | 0.137 ± 0.00287
x2 = 0.3998 | 0.147 ± 0.00311
x2 = 0.4514 | 0.153 ± 0.00335
x2 = 0.5013 | 0.155 ± 0.00335
x2 = 0.5519 | 0.153 ± 0.00335
x2 = 0.6007 | 0.149 ± 0.00311
x2 = 0.6502 | 0.142 ± 0.00311
x2 = 0.7002 | 0.132 ± 0.00287
x2 = 0.7504 | 0.12 ± 0.00263
x2 = 0.8008 | 0.104 ± 0.00227
x2 = 0.8513 | 0.0841 ± 0.00184
x2 = 0.8998 | 0.0605 ± 0.00134
x2 = 0.9501 | 0.0322 ± 0.000765

Cc1cccc(C)c1 [1,3-dimethylbenzene]
Conditions | mass density [kg/m3]
[1] | 860 ± 0.5

Cc1cccc(C)c1 [1,3-dimethylbenzene] + COC(=O)OC
[2]
Conditions | excess molar enthalpy [kcal/mol]
x2 = 0.0502 | 0.0299 ± 0.000717
x2 = 0.1006 | 0.0579 ± 0.00129
x2 = 0.151 | 0.0824 ± 0.00182
x2 = 0.2014 | 0.102 ± 0.00222
x2 = 0.2517 | 0.119 ± 0.00263
x2 = 0.3004 | 0.133 ± 0.00287
x2 = 0.3503 | 0.144 ± 0.00311
x2 = 0.4014 | 0.153 ± 0.00335
x2 = 0.4506 | 0.158 ± 0.00335
x2 = 0.5007 | 0.16 ± 0.00359
x2 = 0.5515 | 0.16 ± 0.00335
x2 = 0.6004 | 0.156 ± 0.00335
x2 = 0.6522 | 0.149 ± 0.00311
x2 = 0.7018 | 0.14 ± 0.00311
x2 = 0.7517 | 0.127 ± 0.00263
x2 = 0.8017 | 0.109 ± 0.00239
x2 = 0.8517 | 0.0878 ± 0.00194
x2 = 0.9015 | 0.063 ± 0.00141
x2 = 0.9509 | 0.0337 ± 0.000789

Cc1ccc(C)cc1 [1,4-dimethylbenzene]
Conditions | mass density [kg/m3]
[1] | 856.7 ± 0.4

Cc1ccc(C)cc1 [1,4-dimethylbenzene] + COC(=O)OC
[2]
Conditions | excess molar enthalpy [kcal/mol]
x2 = 0.0504 | 0.0295 ± 0.000693
x2 = 0.101 | 0.0543 ± 0.00122
x2 = 0.1515 | 0.0837 ± 0.00184
x2 = 0.202 | 0.102 ± 0.00222
x2 = 0.2529 | 0.119 ± 0.00263
x2 = 0.3012 | 0.133 ± 0.00287
x2 = 0.3512 | 0.145 ± 0.00311
x2 = 0.4022 | 0.153 ± 0.00335
x2 = 0.4515 | 0.159 ± 0.00335
x2 = 0.5016 | 0.161 ± 0.00359
x2 = 0.5524 | 0.16 ± 0.00359
x2 = 0.6013 | 0.156 ± 0.00335
x2 = 0.6507 | 0.149 ± 0.00311
x2 = 0.7004 | 0.139 ± 0.00311
x2 = 0.7503 | 0.125 ± 0.00263
x2 = 0.8003 | 0.109 ± 0.00237
x2 = 0.8502 | 0.0879 ± 0.00194
x2 = 0.9018 | 0.0621 ± 0.00139
x2 = 0.9511 | 0.033 ± 0.000765

COC(=O)OC [dimethyl carbonate]
Conditions | mass density [kg/m3]
[1] | 1063.1 ± 0.5

CCOC(=O)c1ccccc1 [ethyl benzoate]
Conditions | mass density [kg/m3]
[1] | 1041.3 ± 0.5

CCOC(=O)c1ccccc1 [ethyl benzoate] + COC(=O)OC
[2]
Conditions | excess molar enthalpy [kcal/mol]
x2 = 0.05 | 0.0138 ± 0.000382
x2 = 0.0999 | 0.0284 ± 0.000669
x2 = 0.1497 | 0.0413 ± 0.000956
x2 = 0.1991 | 0.0541 ± 0.00122
x2 = 0.2482 | 0.0641 ± 0.00143
x2 = 0.2984 | 0.073 ± 0.00163
x2 = 0.3495 | 0.0804 ± 0.00177
x2 = 0.4012 | 0.0861 ± 0.00189
x2 = 0.4503 | 0.09 ± 0.00198
x2 = 0.4998 | 0.0919 ± 0.00201
x2 = 0.5495 | 0.0924 ± 0.00203
x2 = 0.599 | 0.0911 ± 0.00198
x2 = 0.6506 | 0.0872 ± 0.00191
x2 = 0.6993 | 0.0831 ± 0.00182
x2 = 0.7495 | 0.075 ± 0.00165
x2 = 0.8007 | 0.0655 ± 0.00146
x2 = 0.8507 | 0.0533 ± 0.0012
x2 = 0.8993 | 0.0387 ± 0.000884
x2 = 0.9498 | 0.0207 ± 0.000526

CCc1ccccc1 [ethylbenzene]
Conditions | mass density [kg/m3]
[1] | 862.5 ± 0.1

CCc1ccccc1 [ethylbenzene] + COC(=O)OC
[2]
Conditions | excess molar enthalpy [kcal/mol]
x2 = 0.0501 | 0.0215 ± 0.000526
x2 = 0.1003 | 0.0489 ± 0.0011
x2 = 0.149 | 0.0639 ± 0.00141
x2 = 0.201 | 0.0848 ± 0.00186
x2 = 0.2512 | 0.104 ± 0.00227
x2 = 0.2998 | 0.119 ± 0.00263
x2 = 0.3525 | 0.133 ± 0.00287
x2 = 0.4005 | 0.143 ± 0.00311
x2 = 0.4524 | 0.15 ± 0.00335
x2 = 0.5025 | 0.153 ± 0.00335
x2 = 0.5507 | 0.153 ± 0.00335
x2 = 0.602 | 0.151 ± 0.00335
x2 = 0.6513 | 0.145 ± 0.00311
x2 = 0.7011 | 0.135 ± 0.00287
x2 = 0.7512 | 0.123 ± 0.00263
x2 = 0.8012 | 0.106 ± 0.00232
x2 = 0.8513 | 0.0865 ± 0.00189
x2 = 0.9012 | 0.0623 ± 0.00139
x2 = 0.9509 | 0.0335 ± 0.000789
